For experiment [1], the target named is T1, β-galactosidase (Escherichia coli, UniProt P00722).
T1 construct: purchased Roche; host or cells: E. coli overproducer
The experiment is described as follows: Enzymatic cleavage study (HPLC) with β-galactosidase. Type of experiment: biochemical, e.coli. Conditions: 100 μM prodrug in PBS, 2 units β-galactosidase, 37°C. As for the experimental part:
To test the desired, selective enzymatic cleavage and further evaluate compound stability, solutions of each prodrug were prepared in phosphate-buffered saline (PBS), and either β-galactosidase or β-glucosidase were added. After incubation times of 24 h and 48 h, samples from each mixture were analyzed by HPLC to gain insight into the relative amounts of both the remaining prodrug and the liberated 1.
Fig. 3 HPLC traces after 48 h of enzyme incubation for the prodrugs of this study as indicated at their respective peaks. The identity of the employed enzyme is indicated on the left of the chromatogram and the identity of each observed compound is shown above the respective peak. Chromatograms are shown with an offset of 2 along the ordinate to facilitate comparison.
The three following enzymes were employed in this study:
(1) esterase from porcine liver sourced from Sigma Aldrich as dry powder with an activity of 229.4 units/mg protein as indicated by the supplier for the received lot; (2) β-glucosidase from almonds sourced from Sigma Aldrich as dry powder with an activity of 11.7 U/mg as indicated by the supplier for the received lot
(3) β-galactosidase from e.coli overproducer sourced from Roche as prepared aqueous solution with an activity of 1500 units/mL protein as indicated by the supplier for the […]
As indicated for each experiment below, the respective enzyme was dissolved in PBS buffer and diluted as appropriate to produce the desired concentration.
25 mM stock solutions in DMSO were prepared for 2a, 2b, 3a, and 3b. From these stock solutions, 4 µL was added to 1 mL of PBS buffer, respectively, in separate glass vials, achieving a final concentration of 100 µM. The vials were then assigned to one of three experimental groups: control, negative, and positive.
In the control group, no enzyme was introduced. The negative group received 2 units of esterase enzyme, while the positive group received 2 units of the target enzyme as indicated, either β-galactosidase or β-glucosidase. All vials were incubated in a 37°C water bath for 48 hours. Aliquots were extracted from each vial after 24 and 48 hours, respectively, and analyzed as described below.
The extracted aliquots were analyzed via high-performance liquid chromatography (HPLC) with ultraviolet (UV) detection at a wavelength of 254 nm. Chromatograms were plotted with an offset of 1 along the y-axis to allow clear intercomparison of the data across the […]

The subject of experiment [2] is OvCar-3 cells. The experiment is described as follows: MTT cell viability assay, OvCar-3 cells. Type of experiment: cell-based. Particulars: Homo sapiens, 72 h incubation, mean and SD of three independent experiments, read-out: IC50 against OvCar-3. As for the experimental part:
(§1) Next, the cytotoxicity of the prodrugs was assessed in the human lung cancer (A549) and human ovarian cancer (OvCar-3) cell lines: overexpressing β-glucosidase, and, overexpressing both β-glucosidase and β-galactosidase, respectively.[40,41] For this, a standard MTT assay was employed to generate the proliferation profiles (cf. ESI ^† Fig. S1–S5) and allowed us to calculate the IC50 values for each compound. GM5756 fibroblast cells were included as non-cancerous control.
(§2) Cell culture. Ovcar-3 cells were maintained in RPMI-1640 medium (Invitrogen), A549 cells were maintained in high glucose (4.5 g/L) Dulbecco’s Modified Eagle’s medium (Invitrogen. Alle employed culture media were supplemented with 10% fetal bovine serum (Gibco), 2% penicillin/streptomycin (Sigma Aldrich), 1%GlutaMAX™-I (100x, Gibco), and 1% sodium pyruvate (100 mM, Gibco).
(§3) Cells were kept under a humidified atmosphere of 10% CO2 and 90% air at 37°C. Cells were split when they reached 90% confluency. All employed cell lines were sourced from the German Collection of Microorganisms and Cell Cultures (Leibnitz Institute, DSMZ).
(§4) Cell viability studies and MTT assays. Cells were harvested and plated on a 96-well plate in 100 µL growth medium at a density of 1500 cells per well. The cells were left to grow for 24 h at 37°C under a humidified atmosphere with 10% CO2. The next day, 100 µL of growth medium containing appropriate concentrations of the investigated compound were added to each well. As a control, the first row of wells was treated with 100 µL medium containing only the vehicle (1% DMSO); all wells contained a final concentration of 0.5% DMSO for the duration of the treatment. After incubation with the compound for 72 h, 50 µL of MTT solution (2.5 mg/mL 3-(4,5-dimethylthiazol-2-yl)-2,5-diphenyltetrazolium bromide dye in PBS buffer) was added to each well. After an additional incubation for 2 h, the supernatant was aspired off and 200 µL of DMSO was added to each well to solubilize the precipitated formazan dye. The produced formazan dye was quantified by measuring the optical density of the solution at 550 nm with a Tecan Infinite M Nano+ plate reader. A baseline correction was performed by subtracting a reference absorbance at 620 nm for each well. From the mean of the corrected absorbances for each set of equivalent wells, a dose-response curve was produced, which was then normalized to the wells containing untreated cells to allow for plate-to-plate comparison. The resulting dose-response curves were subjected to non-linear regression analysis performed in Microsoft Excel (version 16.64) to determine IC50 via the Hill-Langmuir model. Data is shown as the mean of three replicate experiments and error bars represent the standard deviation at each datum point.
A general note: Formazan colour is commonly taken as a measure of viable cells.

Experiment [3] relates to GM5756 fibroblast cells. The experiment in a line: MTT cell viability assay, GM5756 fibroblast cells (non-cancerous control). It counts as cell-based. Conditions: 72 h incubation, mean and SD of three independent experiments, read-out: IC50 against GM5756. As to the method: as §1, §2, §3, §4
The subject of experiment [4] is A549 cells. The experiment in a line: MTT cell viability assay, A549 cells. Particulars: Homo sapiens, 72 h incubation, mean and SD of three independent experiments, read-out: IC50 against A549. Type of experiment: cell-based. As for the experimental part: as §1, §2, §3, §4
The nature of experiment [5]: Fe(III) binding study by UV-vis spectroscopy. Conditions: 30 μM compound, excess FeCl3 (50 μM), methanol. As for the experimental part:
With the prodrugs in hand, binding studies were carried out using UV-vis spectroscopy; this was done to confirm the Fe(III) binding ability of all new compounds. […] To evaluate whether 2a, 2b, 3a, and 3b were chelating Fe(III), each prodrug was similarly dissolved in a solution containing excess FeCl3.
Fig. 2 UV-vis absorption spectra for prodrugs 2a/b and 3a/b as well as 1 at a concentration of 30 μM with an excess of FeCl3 as Fe(III) source (50 μM) in methanol.
UV-vis spectra were recorded in methanol containing the indicated ligand or prodrug at a concentration of 30 µM and as appropriate Fe(III) at a concentration of 50 µM. A stock solution of FeCl3 in DMSO was used as source of Fe(III) and ligands were added from a […] stock solution in DMSO. All samples contained a final concentration of <0.2% DMSO.
Figure S7: UV-vis absorption spectra of 1, Fe(III), and 1 + Fe(III). The graph for 1 + Fe(III) (Numerically) was constructed by numerically adding the respective signals of Fe(III) and 1 to show what graph could be expected if the two species were in the same solution without interacting.
Figure S8: UV-vis absorption spectra of 2a, Fe(III), and 2a + Fe(III). The graph for 2a + Fe(III) (Numerically) was constructed by numerically adding the respective signals of Fe(III) and 2a to show what graph could be expected if the two species were in the same solution without interacting. […]

Experimental findings from paper PMC12177571, “Glycosidase-activated prodrugs of a cytotoxic iron chelator for targeted cancer therapy” (RSC Medicinal Chemistry, 2025) are described below.

T1 sequence (P00722 2-1024): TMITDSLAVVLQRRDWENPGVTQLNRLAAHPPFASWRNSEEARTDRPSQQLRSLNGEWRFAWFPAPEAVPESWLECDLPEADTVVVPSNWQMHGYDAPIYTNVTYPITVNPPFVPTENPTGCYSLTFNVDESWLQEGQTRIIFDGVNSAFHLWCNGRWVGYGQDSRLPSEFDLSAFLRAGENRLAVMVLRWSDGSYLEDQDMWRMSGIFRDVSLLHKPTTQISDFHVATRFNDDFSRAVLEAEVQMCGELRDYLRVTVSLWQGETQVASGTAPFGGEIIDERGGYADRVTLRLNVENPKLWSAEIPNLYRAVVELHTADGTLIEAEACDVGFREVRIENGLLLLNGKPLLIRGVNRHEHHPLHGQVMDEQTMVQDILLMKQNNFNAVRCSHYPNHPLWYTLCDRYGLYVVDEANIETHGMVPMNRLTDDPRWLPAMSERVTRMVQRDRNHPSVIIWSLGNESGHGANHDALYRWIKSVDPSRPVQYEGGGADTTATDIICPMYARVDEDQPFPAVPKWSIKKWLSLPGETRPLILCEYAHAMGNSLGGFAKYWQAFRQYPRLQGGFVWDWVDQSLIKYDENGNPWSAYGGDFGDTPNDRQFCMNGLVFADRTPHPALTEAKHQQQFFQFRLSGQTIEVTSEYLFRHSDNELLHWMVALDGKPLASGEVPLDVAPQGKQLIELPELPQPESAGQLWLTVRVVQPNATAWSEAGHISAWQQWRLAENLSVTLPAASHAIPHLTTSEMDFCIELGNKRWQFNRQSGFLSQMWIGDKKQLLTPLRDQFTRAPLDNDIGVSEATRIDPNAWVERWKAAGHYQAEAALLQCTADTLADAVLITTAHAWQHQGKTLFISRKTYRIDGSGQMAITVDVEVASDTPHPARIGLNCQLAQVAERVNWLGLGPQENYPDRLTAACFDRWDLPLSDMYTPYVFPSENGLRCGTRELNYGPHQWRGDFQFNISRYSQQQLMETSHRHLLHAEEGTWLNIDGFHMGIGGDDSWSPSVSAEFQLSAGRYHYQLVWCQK

Regarding `OC[C@H]1OC(Oc2ccccc2-c2nc(-c3ccccc3O)nn2-c2ccccc2)[C@H](O)[C@@H](O)[C@H]1O` (some centres unmarked) [2a], the “Release of 1 (HPLC)” value in experiment [1] (24 h) and in experiment [1] (48 h) was “no release of 1 was observed” throughout. Also, the 50% inhibitory concentration (IC50) (usually the concentration at which inhibition is half-maximal) in experiment [2] is 67.6 ± 13 µM; in experiment [3] it was above 100 µM; in experiment [4], 74.4 ± 14.1 µM. The “Absorbance at 510 nm (Fe(III) chelation band)” value (“Absorbance at 510 nm” below) in experiment [5] is reported as “no relevant absorbance at 510 nm”.
Take `OC[C@H]1OC(Oc2ccccc2-c2nc(-c3ccccc3O)nn2-c2ccccc2)[C@H](O)[C@@H](O)[C@@H]1O` (some centres unmarked) [2b]: the half-inhibitory concentration (IC50) in experiment [2] was 76.5 ± 0.8 µM; in experiment [3], above 100 µM; in experiment [4], above 100 µM. Also, in experiment [5], the “Absorbance at 510 nm” value is on record as “no relevant absorbance at 510 nm”.
In the case of `OC[C@H]1OC(Oc2ccc(COc3ccccc3-c3nc(-c4ccccc4O)nn3-c3ccccc3)cc2)[C@H](O)[C@@H](O)[C@H]1O` (some centres unmarked) [3a], the “Release of 1 (HPLC)” value is “significant release of 1” in experiment [1] (24 h) and “further increased” in experiment [1] (48 h). The half-inhibitory concentration (IC50) was 9.1 ± 1.6 µM in experiment [2], above 100 µM in experiment [3] and 44.1 ± 2.4 µM in experiment [4]. The “Absorbance at 510 nm” value in experiment [5] is given as “no relevant absorbance at 510 nm”.
Consider `OC[C@H]1OC(Oc2ccc(COc3ccccc3-c3nc(-c4ccccc4O)nn3-c3ccccc3)cc2)[C@H](O)[C@@H](O)[C@@H]1O` (some centres unmarked) [3b], for which the IC50 was determined as 3.7 ± 0.3 µM in experiment [2], 15.3 ± 2.3 µM in experiment [3] and 7.4 ± 1.5 µM in experiment [4]. Also, the “Absorbance at 510 nm” value in experiment [5] is “no relevant absorbance at 510 nm”.
